Structures are written as SMILES. Numbered stars: 1 amine (or outer) side, 2 acyl side, 3 side chain; on linkers, the order of the positions; unused ones are H or OH. Bridge positions count the residues as written; N and C are the ends. Square brackets hold non-standard residues; d marks the D form. Peptide text beside a SMILES is read from it. * marks the point of attachment. Trp(5-Cl) = N[C@@H](Cc1c[nH]c2ccc(Cl)cc12)C(=O)O; Phe(3-Cl) = N[C@@H](Cc1cccc(Cl)c1)C(=O)O; Phe(4-Cl) = N[C@@H](Cc1ccc(Cl)cc1)C(=O)O; X6 = Nc1ccc(CCC(N[*:1])C(=O)[*:2])cn1; X3 = O=C(C(Cc1ccc(Br)s1)N[*:1])[*:2]; mXylylene = c1cc(C[*:1])cc(C[*:2])c1; NMeY = CN[C@@H](Cc1ccc(O)cc1)C(=O)O; NMeT = CN[C@H](C(=O)O)[C@@H](C)O; X8 = CC(C)(C)[C@H](N*)c1ccccn1; dPhg = N[C@@H](C(=O)O)c1ccccc1; Chg = N[C@H](C(=O)O)C1CCCCC1; Phg = N[C@H](C(=O)O)c1ccccc1; Tle = CC(C)(C)[C@H](N)C(=O)O; NMeS = CN[C@@H](CO)C(=O)O; NMeA = CN[C@@H](C)C(=O)O; Dab = NCC[C@H](N)C(=O)O; Mpa = O=C(O)CCS Where only a bound is given, the exact number is not on record here.

We go through 21 molecules from patent US9999650B2, “Peptide and peptidomimetic inhibitors” (Ra Pharmaceuticals, Inc., priority 2012, dated 2018).

The target in the experiment is T1, human plasma kallikrein (Homo sapiens, UniProt P03952).
T1 construct: purchased Enzyme Research Laboratories HPKa 1303
T1 sequence (P03952 20-390 limits assumed): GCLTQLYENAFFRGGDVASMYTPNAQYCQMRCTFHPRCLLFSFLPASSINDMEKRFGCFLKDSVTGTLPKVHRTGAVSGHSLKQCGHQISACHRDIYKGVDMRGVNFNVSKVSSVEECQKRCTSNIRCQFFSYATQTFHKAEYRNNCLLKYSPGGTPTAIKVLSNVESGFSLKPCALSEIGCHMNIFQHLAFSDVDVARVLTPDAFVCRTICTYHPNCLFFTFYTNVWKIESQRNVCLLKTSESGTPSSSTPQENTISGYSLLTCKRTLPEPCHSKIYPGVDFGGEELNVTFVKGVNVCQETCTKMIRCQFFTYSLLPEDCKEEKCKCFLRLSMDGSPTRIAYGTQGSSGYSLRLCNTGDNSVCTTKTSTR
T1 sequence (P03952 391-638 limits assumed): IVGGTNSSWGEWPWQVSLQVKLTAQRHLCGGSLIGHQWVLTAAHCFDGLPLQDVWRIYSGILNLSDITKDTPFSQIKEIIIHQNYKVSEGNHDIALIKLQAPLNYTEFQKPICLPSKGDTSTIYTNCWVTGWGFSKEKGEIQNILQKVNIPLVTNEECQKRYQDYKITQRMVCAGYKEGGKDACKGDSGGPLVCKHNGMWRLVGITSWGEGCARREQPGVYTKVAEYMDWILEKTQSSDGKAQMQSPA
Briefly: Enzyme inhibition assay (fluorogenic substrate H-Pro-Phe-Arg-AMC). The experiment is classed as biochemical. Particulars: Kallikrein inhibitory activity; 1 nM activated human kallikrein, 500 μM H-Pro-Phe-Arg-AMC, 1 hour room temperature; read-out: Avg. IC50. The method, then: Activated human plasma kallikrein (Enzyme Research Laboratories, HPKa 1303) was reacted with H-Pro-Phe-Arg-7-amido-4-methylcoumarin (H-Pro-Pre-Arg-AMC) (a fluorogenic substrate for plasma as well as pancreatic and urinary kallikreins; Bachem I-1295) and candidate inhibitory peptides to determine the IC50 of the inhibitor.
Ten 8-fold serial dilutions of peptides (10 mM DMSO stocks) were performed in DMSO and then added to TCNB (50 mM Tris-HCl pH 7.2, 150 mM NaCl, 10 mM CaCl2, 0.05% Brij-35) and sonicated. 50 μL of the peptide dilutions were added to microtitre plates (96 well, black non-binding surface, Corning, 3650) and incubated for 5 minutes at room temperature with 4 nM activated human kallikrein (final concentration after addition of fluorogenic substrate: 1 nM). The samples were then incubated for 1 hour at room temperature with 2 mM H-Pro-Phe-Arg-AMC (final concentration 500 μM). Relative Fluorescence Units (RFU) were measured at excitation/emission 360 nm/460 nm by a SpectraMax M3.
A word on the IC50: it is the point on the concentration scale where inhibition reaches its midpoint. For the molecule `CC(C)(C)[C@H](NC(=O)[C@H](CCCNC(=N)N)NC(=O)[C@@H]1CSCc2cccc(c2)CSCCC(=O)N2CCC[C@H]2C(=O)N[C@@H](c2ccccc2)C(=O)N1)C(N)=O` [Compound R2188, [mXylyl(1,4)](des-NH2)C-P-Phg-CR-Tbg-NH2] ([Mpa]P[Phg]CR[Tle]-NH2; linker 1-4 via mXylylene), the IC50 worked out at 0.0034 µM.

`N=C(N)NCCC[C@H](NC(=O)[C@@H]1CSCc2cccc(c2)CSCCC(=O)N2CCC[C@H]2C(=O)N[C@@H](C2CCCCC2)C(=O)N1)C(=O)O` [Compound R2195, [mXylyl(1,4)](des-NH2)C-P-Chg-CR-OH] ([Mpa]P[Chg]CR-OH; linker 1-4 via mXylylene): the half-inhibitory concentration (IC50) was above 175 µM. Regarding `CC(C)(C)[C@H](NC(=O)[C@H](CCCNC(=N)N)NC(=O)[C@@H]1CSCc2cccc(c2)CSCCC(=O)N2CCC[C@H]2C(=O)N[C@@H](C2CCCCC2)C(=O)N1)c1ccccn1` [Compound R2196, [mXylyl(1,4)](des-NH2)C-P-Chg-CR-(S)-2,2-dimethyl-1-(pyridin-2-yl)propan-1-amine] ([Mpa]P[Chg]CR-X8; linker 1-4 via mXylylene), the IC50 is 0.0356 µM.

Consider `CC(C)C[C@H](NC(=O)[C@@H](NC(=O)[C@H](CCCNC(=N)N)NC(=O)[C@@H]1CSCc2cccc(c2)CSCCC(=O)N2CCC[C@H]2C(=O)N[C@@H](c2ccccc2)C(=O)N1)C(C)(C)C)C(=O)O` [Compound R2202, [mXylyl(1,4)](des-NH2)C-P-Phg-CR-Tbg-L-OH] ([Mpa]P[Phg]CR[Tle]L-OH; linker 1-4 via mXylylene), for which the IC50 is 0.0588 µM. Then `CC(C)[C@H](NC(=O)C(CCc1ccc(N)nc1)NC(=O)[C@@H]1CSCc2cccc(c2)CSCCC(=O)N2CCC[C@H]2C(=O)N[C@@H](C2CCCCC2)C(=O)N1)C(N)=O` (stereo partly drawn) [Compound R2203, [mXylyl(1,4)](des-NH2)C-P-Chg-C-2-amino-4-(6-aminopyridin-3-yl)butanoic acid-V-NH2] ([Mpa]P[Chg]C[X6]V-NH2; linker 1-4 via mXylylene), with above 10 µM.

Regarding `CC(C)(C)[C@H](NC(=O)[C@H](Cc1ccc(Cl)cc1)NC(=O)[C@@H]1CSCc2cccc(c2)CSCCC(=O)N2CCC[C@H]2C(=O)N[C@@H](c2ccccc2)C(=O)N1)C(N)=O` [Compound R2205, [mXylyl(1,4)](des-NH2)C-P-Phg-C-4-Cl-Phe-Tbg-NH2] ([Mpa]P[Phg]C[Phe(4-Cl)][Tle]-NH2; linker 1-4 via mXylylene), the IC50 was above 75 µM. Then `CC(C)(C)[C@H](NC(=O)[C@H](Cc1ccc(Cl)cc1)NC(=O)[C@@H]1CSCc2cccc(c2)CSCCC(=O)N2CCC[C@H]2C(=O)N[C@H](c2ccccc2)C(=O)N1)C(N)=O` [Compound R2206, [mXylyl(1,4)](des-NH2)C-P-(D)Phg-C-4-Cl-Phe-Tbg-NH2] ([Mpa]P[dPhg]C[Phe(4-Cl)][Tle]-NH2; linker 1-4 via mXylylene), with above 75 µM; and `CC(C)(C)[C@H](NC(=O)[C@H](Cc1cccc(Cl)c1)NC(=O)[C@@H]1CSCc2cccc(c2)CSCCC(=O)N2CCC[C@H]2C(=O)N[C@@H](c2ccccc2)C(=O)N1)C(N)=O` [Compound R2207, [mXylyl(1,4)](des-NH2)C-P-Phg-C-3-Cl-Phe-Tbg-NH2] ([Mpa]P[Phg]C[Phe(3-Cl)][Tle]-NH2; linker 1-4 via mXylylene), with above 75 µM. In the case of `CC(C)(C)[C@H](NC(=O)[C@H](Cc1c[nH]c2ccc(Cl)cc12)NC(=O)[C@@H]1CSCc2cccc(c2)CSCCC(=O)N2CCC[C@H]2C(=O)N[C@@H](c2ccccc2)C(=O)N1)C(N)=O` [Compound R2209, [mXylyl(1,4)](des-NH2)C-P-Phg-C-5-C1-Trp-Tbg-NH2] ([Mpa]P[Phg]C[Trp(5-Cl)][Tle]-NH2; linker 1-4 via mXylylene) it was above 75 µM; in that of `CC(C)(C)[C@H](NC(=O)[C@H](Cc1c[nH]c2ccc(Cl)cc12)NC(=O)[C@@H]1CSCc2cccc(c2)CSCCC(=O)N2CCC[C@H]2C(=O)N[C@H](c2ccccc2)C(=O)N1)C(N)=O` [Compound R2210, [mXylyl(1,4)](des-NH2)C-P-(D-Phg)-C-5-C1-Trp-Tbg-NH2] ([Mpa]P[dPhg]C[Trp(5-Cl)][Tle]-NH2; linker 1-4 via mXylylene), above 75 µM. With `CC(C)(C)[C@H](NC(=O)[C@H](CCN)NC(=O)[C@@H]1CSCc2cccc(c2)CSCCC(=O)N2CCC[C@H]2C(=O)N[C@@H](c2ccccc2)C(=O)N1)C(N)=O` [Compound R2211, [mXylyl(1,4)](des-NH2)C-P-Phg-C-Dab-Tbg-NH2] ([Mpa]P[Phg]C[Dab][Tle]-NH2; linker 1-4 via mXylylene), the IC50 was above 75 µM. Then `CC(C)(C)[C@H](NC(=O)[C@H](CCN)NC(=O)[C@@H]1CSCc2cccc(c2)CSCCC(=O)N2CCC[C@H]2C(=O)N[C@H](c2ccccc2)C(=O)N1)C(N)=O` [Compound R2212, [mXylyl(1,4)](des-NH2)C-P-(D-Phg)-C-Dab-Tbg-NH2] ([Mpa]P[dPhg]C[Dab][Tle]-NH2; linker 1-4 via mXylylene), with above 100 µM; and `CC(C)(C)[C@H](NC(=O)C(Cc1ccc(Br)s1)NC(=O)[C@@H]1CSCc2cccc(c2)CSCCC(=O)N2CCC[C@H]2C(=O)N[C@@H](c2ccccc2)C(=O)N1)C(N)=O` (stereo partly drawn) [Compound R2219, [mXylyl(1,4)](des-NH2)C-P-Phg-C-ABP-Tbg-NH2] ([Mpa]P[Phg]C[X3][Tle]-NH2; linker 1-4 via mXylylene), with above 100 µM.

With `CC(C)(C)[C@H](NC(=O)C(Cc1ccc(Br)s1)NC(=O)[C@@H]1CSCc2cccc(c2)CSCCC(=O)N2CCC[C@H]2C(=O)N[C@H](c2ccccc2)C(=O)N1)C(N)=O` (stereo partly drawn) [Compound R2220, [mXylyl(1,4)](des-NH2)C-P-(D-Phg)-C-ABP-Tbg-NH2] ([Mpa]P[dPhg]C[X3][Tle]-NH2; linker 1-4 via mXylylene), the half-maximal inhibitory concentration (IC50) was above 100 µM. In the case of `CC(=O)N[C@H]1CSCc2cccc(c2)CSC[C@@H](C(N)=O)NC(=O)[C@H](C)NC(=O)[C@H]([C@@H](C)O)N(C)C(=O)[C@H](Cc2c[nH]c3ccccc23)NC(=O)[C@@H]2CCCN2C(=O)[C@H](CO)N(C)C(=O)[C@H](Cc2c[nH]c3ccccc23)NC(=O)[C@H](Cc2ccc(O)cc2)N(C)C(=O)[C@H](CC(N)=O)NC1=O` [Compound R2223, [mXylyl(1,10)]Ac-CN-nMeY-W-nMeS-PW-nMeT-AC-NH2] (Ac-CN[NMeY]W[NMeS]PW[NMeT]AC-NH2; linker 1-10 via mXylylene) it was above 100 µM; in that of `CC(=O)N[C@H]1CSSC[C@@H](C(N)=O)NC(=O)[C@H](C)NC(=O)[C@H]([C@@H](C)O)N(C)C(=O)[C@H](Cc2c[nH]c3ccccc23)NC(=O)[C@@H]2CCCN2C(=O)[C@H](CO)N(C)C(=O)[C@H](Cc2c[nH]c3ccccc23)NC(=O)[C@H](Cc2ccc(O)cc2)N(C)C(=O)[C@H](CC(N)=O)NC1=O` [Compound R2224, [cyclo(1,10)]Ac-CN-nMeY-W-nMeS-PW-nMeT-AC-NH2] (Ac-CN[NMeY]W[NMeS]PW[NMeT]AC-NH2; disulfide 1-10), above 100 µM. Then `CC(=O)N[C@@H](CS)C(=O)N[C@@H](CC(N)=O)C(=O)N[C@@H](Cc1ccc(O)cc1)C(=O)N[C@@H](Cc1c[nH]c2ccccc12)C(=O)N[C@@H](CO)C(=O)N1CCC[C@H]1C(=O)N[C@H](Cc1c[nH]c2ccccc12)C(=O)N[C@H](C(=O)N[C@@H](C)C(=O)N[C@@H](CS)C(N)=O)[C@@H](C)O` [Compound R2228, Ac-CNYWSPwTAC-NH2] (Ac-CNYWSP[dW]TAC-NH2), with above 10.6 µM; and `CC(=O)N[C@@H](CS)C(=O)N[C@@H](CC(N)=O)C(=O)N[C@@H](Cc1ccc(O)cc1)C(=O)N[C@@H](Cc1c[nH]c2ccccc12)C(=O)N[C@@H](CO)C(=O)N1CCC[C@@H]1C(=O)N[C@@H](Cc1c[nH]c2ccccc12)C(=O)N[C@H](C(=O)N[C@@H](C)C(=O)N[C@@H](CS)C(N)=O)[C@@H](C)O` [Compound R2229, Ac-CNYWSpWTAC-NH2] (Ac-CNYWS[dP]WTAC-NH2), with above 14.3 µM; and `CC(=O)N[C@@H](CS)C(=O)N[C@@H](CC(N)=O)C(=O)N[C@@H](Cc1ccc(O)cc1)C(=O)N[C@@H](Cc1c[nH]c2ccccc12)C(=O)N[C@H](CO)C(=O)N1CCC[C@H]1C(=O)N[C@@H](Cc1c[nH]c2ccccc12)C(=O)N[C@H](C(=O)N[C@@H](C)C(=O)N[C@@H](CS)C(N)=O)[C@@H](C)O` [Compound R2230, Ac-CNYWsPWTAC-NH2] (Ac-CNYW[dS]PWTAC-NH2), with above 6.58 µM. For `CC(=O)N[C@@H](CS)C(=O)N[C@@H](CC(N)=O)C(=O)N[C@H](Cc1ccc(O)cc1)C(=O)N[C@@H](Cc1c[nH]c2ccccc12)C(=O)N[C@@H](CO)C(=O)N1CCC[C@H]1C(=O)N[C@@H](Cc1c[nH]c2ccccc12)C(=O)N[C@H](C(=O)N[C@@H](C)C(=O)N[C@@H](CS)C(N)=O)[C@@H](C)O` [Compound R2232, Ac-CNyWSPWTAC-NH2] (Ac-CN[dY]WSPWTAC-NH2), the IC50 is above 1.95 µM. In the case of `CC(=O)N[C@@H](CS)C(=O)N[C@@H](CC(N)=O)C(=O)N[C@@H](Cc1ccc(O)cc1)C(=O)N[C@@H](Cc1c[nH]c2ccccc12)C(=O)N[C@@H](CO)C(=O)N1CCC[C@H]1C(=O)N[C@@H](Cc1c[nH]c2ccccc12)C(=O)N[C@H](C(=O)N(C)[C@@H](C)C(=O)N[C@@H](CS)C(N)=O)[C@@H](C)O` [Compound R2234, Ac-CNYWSPWT-nMeA-C-NH2] (Ac-CNYWSPWT[NMeA]C-NH2) it was 0.0027 µM.
